Among the test systems are OVCAR-8; EKVX; CCRF-CEM; SK-MEL-28; LOX IMVI; NCI-H226; SF-539; HOP-92; SK-MEL-5; NCI/ADR-RES; HT-29; HOP-62; A549; RPMI-8226; MCF7; UO-31; CAKI-1; SR; ACHN; M14.
Holding throughout (assay): NCI tumour cell line growth inhibition, 48 h

Each structure is given as a SMILES string.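 Cultured in 96-well plates, cells were exposed to test compound for 48 hours across five concentrations. Abbreviation: GI50, concentration required for 50% inhibition of growth.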 Activity calls are given as the source filed them. Cut-off read from the data, not from the text of the source: active = GI50 up to about 1.1 µM and inactive = higher.

The results in this text go back to ChEMBL document CHEMBL1201862, “PubChem BioAssay data set” (2004).

Turning to `CCOC(=O)/C=C/c1c[nH]c(C(=O)OCC)c1`, the GI50 was > 100 µM (inactive) with OVCAR-8; > 85.7 µM (inactive) in the assay with EKVX; > 100 µM (inactive) in the assay with CCRF-CEM; > 100 µM (inactive) in the assay with SK-MEL-28; > 100 µM (inactive) with LOX IMVI; > 100 µM (inactive) in the assay with NCI-H226. Further, the GI50 with SF-539, in the assay on HOP-92, in the assay with SK-MEL-5, in the assay with NCI/ADR-RES, in the assay on HT-29 and with HOP-62 was > 100 µM (inactive) each time. Also, the GI50 with A549, in the assay on RPMI-8226, with MCF7, with UO-31 and in the assay with CAKI-1 was > 100 µM (inactive) throughout.
In the case of `COC(=O)C1C(O)C(C)C(O)C(C)(O)/C=C\C=C(C)C(=O)Nc2c(C)c(OC(C)=O)c3c(c2O)C(=O)C(C)=C2OCOC(=C23)C(C)=CC(C)(O)C(O)C(C)C1OC(C)=O` (configuration not stated), the GI50 with OVCAR-8 is 49.3 µM (inactive); in the assay on EKVX it was 34.1 µM (inactive); in the assay with CCRF-CEM, 34.7 µM (inactive); with SK-MEL-28, 40.1 µM (inactive); in the assay on LOX IMVI, 20.4 µM (inactive); in the assay on NCI-H226 it was 63.5 µM (inactive). The GI50 in the assay on SF-539 was 41.2 µM (inactive); with HOP-92 it was 2.52 µM (inactive); in the assay on SK-MEL-5, 30.3 µM (inactive); in the assay with NCI/ADR-RES, > 100 µM (inactive); with HT-29 it was 45.4 µM (inactive); with HOP-62, > 86.3 µM (inactive). The GI50 in the assay with A549 is > 100 µM (inactive); with RPMI-8226 it was 33.3 µM (inactive); in the assay with MCF7, 18 µM (inactive); in the assay on UO-31 it was > 100 µM (inactive); in the assay on CAKI-1, 47.5 µM (inactive).
Consider `CC[C@H]1CN2CCc3cc(OC)c(OC)cc3[C@@H]2C[C@@H]1C[C@H]1NCCc2cc(O)c(OC)cc21`, for which the GI50 in the assay with OVCAR-8 was 0.025 µM (active); in the assay on EKVX, 0.025 µM (active); with CCRF-CEM, 0.025 µM (active); with SK-MEL-28 it was 0.041 µM (active); in the assay on SF-539 it was 0.0308 µM (active); in the assay on SK-MEL-5 it was 0.0592 µM (active). For the same compound, the GI50 is 0.543 µM (active) in the assay with NCI/ADR-RES; 0.0319 µM (active) with HT-29; 0.025 µM (active) with A549; 0.146 µM (active) in the assay on RPMI-8226; 0.025 µM (active) in the assay on MCF7; < 0.01 µM (active) with SR. In addition, the GI50 with UO-31 is 0.146 µM (active); with CAKI-1 it was 0.025 µM (active).
Regarding `CCOC(=O)C1=NN(c2ccc(Cl)cc2)C2=CC(C)=NN(C)C(=S)N21`, the GI50 in the assay on OVCAR-8 is 41.3 µM (inactive); with EKVX, 29.9 µM (inactive); with CCRF-CEM, > 100 µM (inactive); in the assay on SK-MEL-28, > 100 µM (inactive); with LOX IMVI it was 47.1 µM (inactive); with SF-539 it was 22.6 µM (inactive). In addition, the GI50 in the assay on HOP-92 is 30.8 µM (inactive); in the assay with SK-MEL-5 it was > 100 µM (inactive); in the assay with NCI/ADR-RES, 65 µM (inactive); in the assay on HT-29, > 100 µM (inactive); in the assay on A549 it was 95.7 µM (inactive); with RPMI-8226 it was > 100 µM (inactive). Besides, the GI50 in the assay on ACHN was 72.6 µM (inactive); in the assay on MCF7, > 10 µM (inactive); in the assay with M14, 59.7 µM (inactive); in the assay with SR, > 100 µM (inactive); in the assay on UO-31 it was > 100 µM (inactive); in the assay on CAKI-1 it was 19.9 µM (inactive).
On to `CCOC(=O)CNC(=O)NC12CC3CC(CC(C3)C1)C2`, for which the GI50 was 490 µM (inactive) with OVCAR-8; 191 µM (inactive) with EKVX; 182 µM (inactive) with CCRF-CEM; 179 µM (inactive) in the assay on SK-MEL-28; 237 µM (inactive) in the assay with LOX IMVI; 203 µM (inactive) in the assay on NCI-H226. Moreover, the GI50 is 203 µM (inactive) with SF-539; 22.1 µM (inactive) in the assay with HOP-92; 131 µM (inactive) in the assay on SK-MEL-5; 305 µM (inactive) in the assay with NCI/ADR-RES; 366 µM (inactive) in the assay on HT-29; 185 µM (inactive) in the assay with HOP-62. Moreover, the GI50 in the assay on A549 is 229 µM (inactive); in the assay on RPMI-8226, 274 µM (inactive); in the assay on MCF7, 115 µM (inactive); in the assay with UO-31, 171 µM (inactive); in the assay with CAKI-1 it was 169 µM (inactive).
As for `CC(=C(c1ccccc1)c1ccccc1)N1C(=O)CC(=O)N1C`, the GI50 in the assay with OVCAR-8 is 99.1 µM (inactive); with EKVX it was 53.3 µM (inactive); with CCRF-CEM it was 40 µM (inactive); in the assay with SK-MEL-28 it was 55.5 µM (inactive); with LOX IMVI, 17 µM (inactive); in the assay on NCI-H226, > 100 µM (inactive). In addition, the GI50 with SF-539 was 26.3 µM (inactive); with HOP-92, 45.5 µM (inactive); with SK-MEL-5, 95.7 µM (inactive); in the assay with NCI/ADR-RES it was > 100 µM (inactive); with HT-29 it was > 100 µM (inactive); in the assay with HOP-62, 27.5 µM (inactive). Besides, the GI50 was 35 µM (inactive) with A549; 32.6 µM (inactive) with RPMI-8226; > 100 µM (inactive) in the assay with ACHN; 43.8 µM (inactive) in the assay on MCF7; 24.7 µM (inactive) in the assay with M14; 17.1 µM (inactive) in the assay with UO-31. Also, the GI50 with CAKI-1 was 21.1 µM (inactive).
In the case of `CC(=O)OCC1OC(Nc2ncc(-c3ccc(C)cc3)s2)C(OC(C)=O)C(OC(C)=O)C1OC(C)=O` (configuration not stated), the GI50 in the assay on OVCAR-8 was 39.7 µM (inactive); in the assay with EKVX, 54 µM (inactive); in the assay with CCRF-CEM, 29.1 µM (inactive); with SK-MEL-28, 39.1 µM (inactive); in the assay on LOX IMVI it was 26.9 µM (inactive); in the assay with NCI-H226, 25.2 µM (inactive). Besides, the GI50 is 43.8 µM (inactive) in the assay with SF-539; 42.6 µM (inactive) in the assay on HOP-92; 33.3 µM (inactive) with SK-MEL-5; 26.3 µM (inactive) with NCI/ADR-RES; 29.2 µM (inactive) in the assay with HT-29; 52 µM (inactive) with HOP-62. Besides, the GI50 was 44.5 µM (inactive) with A549; 24.7 µM (inactive) in the assay with RPMI-8226; 13.3 µM (inactive) in the assay with MCF7; 19.8 µM (inactive) in the assay on UO-31; 29 µM (inactive) in the assay with CAKI-1.
For `COc1ccc2c(c1)c1c(n2CCN(C)C)-c2ccccc2CC1`, the GI50 in the assay on OVCAR-8 was 16.9 µM (inactive); in the assay with EKVX, 9.77 µM (inactive); in the assay with CCRF-CEM, 11.3 µM (inactive); with SK-MEL-28 it was 15 µM (inactive); with LOX IMVI, 16.6 µM (inactive); in the assay with NCI-H226, 12.2 µM (inactive). Besides, the GI50 in the assay with SF-539 was 14 µM (inactive); with HOP-92, 16.5 µM (inactive); with SK-MEL-5, 14.9 µM (inactive); in the assay with NCI/ADR-RES it was 16.8 µM (inactive); with HT-29, 7.78 µM (inactive); with HOP-62 it was 16.4 µM (inactive). For the same compound, the GI50 with A549 is 15.6 µM (inactive); with RPMI-8226 it was 13.7 µM (inactive); in the assay on ACHN, 16.4 µM (inactive); with MCF7, 18.3 µM (inactive); with M14 it was 15.6 µM (inactive); in the assay with UO-31, 13.5 µM (inactive). Also, the GI50 in the assay on CAKI-1 is 14.3 µM (inactive).
`Cc1cc(O)c2c(c1O)C(=O)C13C(=C(O)C4C(O)C1C1C(O)C3C(O)=C3C(=O)c5c(O)cc(C)c(O)c5C(=O)C341)C2=O` (configuration not stated): the GI50 in the assay on OVCAR-8 is 0.0615 µM (active); with EKVX, 0.0845 µM (active); with CCRF-CEM, 0.035 µM (active); in the assay on SK-MEL-28 it was 0.106 µM (active); in the assay on LOX IMVI, 0.106 µM (active); in the assay with NCI-H226, 0.199 µM (active). The GI50 in the assay on SF-539 is 0.134 µM (active); in the assay with HOP-92, 0.24 µM (active); in the assay on SK-MEL-5, 0.15 µM (active); in the assay on NCI/ADR-RES, 0.15 µM (active); in the assay with HT-29 it was 0.0451 µM (active); with HOP-62, 0.207 µM (active). Further, the GI50 is 0.0311 µM (active) in the assay on A549; 0.0121 µM (active) in the assay with RPMI-8226; 0.0577 µM (active) in the assay with MCF7; 0.0392 µM (active) in the assay with UO-31; 0.209 µM (active) in the assay on CAKI-1.
Turning to `C[S+](C)CC1OC(n2cnc3c(N)ncnc32)C(O)C1O` (configuration not stated), the GI50 in the assay on OVCAR-8, in the assay with EKVX, with CCRF-CEM, in the assay on SK-MEL-28, in the assay on LOX IMVI and with NCI-H226 was > 225 µM (inactive) each time. Moreover, the GI50 with SF-539, in the assay with HOP-92, with SK-MEL-5, with NCI/ADR-RES, in the assay with HT-29 and in the assay on HOP-62 was > 225 µM (inactive) in each case. In addition, the GI50 in the assay on A549, with RPMI-8226, in the assay with MCF7, in the assay with UO-31 and with CAKI-1 was > 225 µM (inactive) throughout.
Regarding `CC=C/C=C/[C@@H]1O[C@](O)([C@H](CC)C(=O)NC/C=C/C=C(\C)[C@@H](OC)[C@@H](C)[C@@H]2O[C@H](/C=C/C=C/C=C(\C)C(=O)c3c(O)cc[nH]c3=O)[C@H](O)[C@@H]2O)[C@H](O)[C@H](O)C1(C)C`, the GI50 is 72.3 µM (inactive) in the assay on OVCAR-8; > 100 µM (inactive) in the assay with EKVX; > 100 µM (inactive) with SK-MEL-28; > 100 µM (inactive) in the assay on SF-539; > 100 µM (inactive) in the assay with HOP-92; > 100 µM (inactive) with NCI/ADR-RES. In addition, the GI50 with HT-29 is > 100 µM (inactive); with HOP-62, > 100 µM (inactive); with A549 it was > 100 µM (inactive); in the assay with RPMI-8226 it was 88.7 µM (inactive); with ACHN, > 100 µM (inactive); in the assay on MCF7, > 100 µM (inactive). Moreover, the GI50 with M14, in the assay with SR and in the assay on UO-31 was > 100 µM (inactive) throughout.
